Measured values from patent US20240269308A1, “PRODRUGS OF TOPOISOMERASE I INHIBITOR FOR ADC CONJUGATIONS AND METHODS OF USE THEREOF” (priority 2022, published 2024).
Read-outs that look alike come from different tables or passages of the source.

Legend:
SK-BR-3 cells = assay: SKBR3 cell-based anti-proliferation / viability assay (CellTiter-Glo); design: species or system human; conditions: for EC50: SK-BR-3, read-out: SKBR3 EC50
Description: (§1) The anti-Her2 viability assay protocol is following.
(§2) 0.1% BSA was added to the Opti-MEM reduced serum media [Gibco, cat #31985-070]. This assay media was used for the dilution of ADC and free drug.
(§3) Cells were seeded in their growth media into 96 well plates (Thermo #136101) one day prior to adding ADCs: 1000/well SKBR3 cells in 80 uL media (target positive cells), 1000/well NCI-N87 cells in 80 uL media (target positive cells), 1000/well Calu-3 in 80 uL media (target positive cells), and 800/well NCI-H1975 cells in 80ul media (target negative cells).
(§4) Serial dilutions of free drug in 100% DMSO (1:4 10 pts starting from 100 uM) were prepared. Serially diluted payload was transferred into Opti-Mem with 0.1% BSA (10 uL into 990 uL media). Serial dilutions of ADCs/isotype controls at 1:4 in Opti-Mem with 0.1% BSA (starting from 5×1000 nM) were prepared. 20ul assay media diluted ADC/isotype conjugates as well as free drug were transferred to above cells. The plates were incubated at 37° C., 5% CO2 for 6 days. Plates were developed by adding 100ul CellTiter Glo 2.0. RT 5-10 min. Plates were read with Envision plate reader. Data was analyzed using Prism. Only inner 60 well are used for the assay. The edge wells were filled with media to prevent dry out.
The cell line used in the anti-proliferation assays was SK-BR-3, a human breast, adenocarcinoma (pleural effusion) cell line; The cells were grown in McCoy's 5a Medium+10% FBS. To run the assay, the cells (80 μl, 1000 cells) were added to each well in a 96-well plate and incubated for 24 hours at 37° C. with CO2. Next, the cells were treated with test compounds (20 μl) at various concentrations in appropriate cell culture medium (total volume, 0.1 mL). The control wells contain cells and the medium but lack the test compounds. The plates were incubated for 144 hours at 37° C. with CO2. CTG reagent was then added to the wells (100 μl). After the plates were shaken for 10 min and then incubated for 10 min at room temperature, paste the clear bottom with white back seal and record luminescence with Envision. The inhibition % was calculated according to the following equation: inhibition %=[1-(assay-blank)/(control-blank)]×100.

[1] = Mouse whole blood stability test; format: in vitro ADME
Description: In vitro stability of Linker-Prodrug in mouse whole blood Scheme 15. Metabolism of LP1 (M2980) in whole blood.
Stock solution of test compound was provided in 100% DMSO. The stock solution for each compound was diluted into 500 μM with mixture of 50% acetonitrile, then diluted into mouse blood to achieve a final concentration of 1.0 μM. 1.0 μM of test compound in duplicate was incubated in blood at 37° C. Aliquots of 50 uL sample was collected at 0, 15, 30, 60, 120, 240, 480 min, and 24 hours. Reactions were terminated at various time points (0, 15, 30, 60, 120, 240, 480 min, 24 hours) by adding 200 μL of ice-cold acetonitrile containing internal standard with 1% formic acid and then ultrasound for 30 seconds. Plate was centrifuged (4000 rpm, 15 min). 50 μL of supernatants were transferred into a daughter plate containing 200 μL of H2O in each well. The samples were mixed well and analyzed with UPLC-MS/MS.
A Waters liquid chromatographic system was used. Detection was performed on AP14000 Q-Trap and AP15500 mass spectrometer equipped with TurbolonSpray (ESI) Interface (Applied Biosystems, Concord, Ontario, Canada). Analyst 1.5 and 1.6.2 software packages (Applied Biosystems) were used to control the LC-MS/MS system, as well as for data acquisition and processing.
Chromatographic separation was achieved on the Wates BEH C18 column (50*2.1 mm ID, 1.7 μm). The column temperature was maintained at ambient temperature (25° C.). The flow rate was maintained at 0.6 mL/min and the following mobile phases were used: water (0.1% formic acid, v/v) (phase A) and acetonitrile (0.1% formic acid, v/v) (phase B).
Test compounds (1.0 μM) were incubated in blood at 37° C. in duplicate. Aliquots of 50 uL sample was collected at 0, 15, 30, 60, 120, 240, 480 min, and 24 hours. Reactions were terminated at various time points (0, 15, 30, 60, 120, 240, 480 min, 24 hours by adding 200 μL of ice-cold acetonitrile containing internal standard with 1% formic acid, then ultrasound for 30 seconds. The plate was centrifuged (4000 rpm, 15 min). 50 μL of supernatants were transferred into a daughter plate containing 200 μL of water in each well. Samples were mixed well and analyzed with UPLC-MS/MS.
The % was calculated based on initial 1 uM as 100% and the standard concentration curve.

NCI-N87 cells = assay: anti-Her2 viability assay, NCI-N87 cells (target positive); format: cell-based; conditions: NCI-N87 target positive cells, 6 days; for IC50: Homo sapiens, 144 h, read-out: N87 IC50
Description: as §1, §2, §3, §4

Calu-3 = assay: anti-Her2 viability assay, Calu-3 cells (target positive); format: cell-based; conditions: Calu-3 target positive cells, 6 days; for IC50: Homo sapiens, 144 h, read-out: Calu-3 IC50
Description: as §1, §2, §3, §4

NCI-H1975 cells = assay: anti-Her2 viability assay, NCI-H1975 cells (target negative); format: cell-based; conditions: NCI-H1975 target negative cells, 6 days; for IC50: Homo sapiens, 144 h, read-out: H1975 IC50
Description: as §1, §2, §3, §4

JIMT-1 = assay: in vitro cell killing activity, JIMT-1 cells (CellTiter Glo viability); format: cell-based; conditions: JIMT-1 cells; for IC50: Homo sapiens, read-out: JIMT-1 IC50
Description: as §4

in vitro = conditions: human, plasma
[2] = SKBR3 target positive cells, 6 days
[3] = whole blood, mouse blood, read-out: Mouse blood stability T1/2 (converted)

| SMILES | EC50 (SK-BR-3 cells; Homo sapiens) | SKBR3 % Kill (SK-BR-3 cells; [2]) | Mouse blood stability % Remaining at 24 h ([1]; mouse blood) | half-life at 1 μM [1, 3] | IC50 (NCI-N87 cells) | N87 % Kill (NCI-N87 cells) | Calu-3 % Kill (Calu-3) | IC50 (Calu-3) | IC50 (NCI-H1975 cells) | H1975 % Kill (NCI-H1975 cells) | IC50 (JIMT-1) | JIMT-1 % Kill (JIMT-1) | half-life (Human plasma stability) | Human plasma stability % Remaining at 24 h (Human plasma stability) | IC50 (SK-BR-3 cells; Homo sapiens, SK-BR-3, 144 h, SKBR3 target positive cells, 6 days, CellTiter Glo, read-out: SKBR3 IC50) | half-life at 1 μM ([1]; mouse, blood) | Mouse blood stability % Remaining at 24 h ([1]; mouse, blood, 1 μM) | Human plasma stability % Remaining at 24 h | half-life (in vitro) |
| --- | --- | --- | --- | --- | --- | --- | --- | --- | --- | --- | --- | --- | --- | --- | --- | --- | --- | --- | --- |
| CC[C@@]1(O)C(=O)OCc2c1cc1n(c2=O)Cc2c-1nc1cc(F)c(C)c3c1c2[C@@H](NC(=O)COCNC(=O)[C@@H](N)CCC(=O)O)CC3 [P4, (4S)-4-amino-4-{[({[(10S,23S)-10-ethyl-18-fluoro-10-hydroxy-19-methyl-5,9-dioxo-8-oxa-4,15-diazahexacyclo[14.7.1.0^2,14.0^4,13.0^6,11.0^20,24]tetracosa-1,6(11),12,14,16,18,20(24)-heptaen-23-yl]carbamoyl}methoxy)methyl]carbamoyl}butanoic acid] | 6.63 nM | 96.6% | 66.1% | 9.2 h | 9.84 nM | 97.7% | 93.7% | 5.67 nM | 24.1 nM | 96.8% | 20.7 nM | 92.0% | 107 h | 90.4% |  |  |  |  |  |
| CC[C@@]1(O)C(=O)OCc2c1cc1n(c2=O)Cc2c-1nc1cc(F)c(C)c3c1c2[C@@H](NC(=O)COCNC(=O)[C@@H](N)Cc1ccccc1)CC3 [P7, (2S)-2-amino-N-[({[(10S,23S)-10-ethyl-18-fluoro-10-hydroxy-19-methyl-5,9-dioxo-8-oxa-4,15-diazahexacyclo[14.7.1.0^2,14.0^4,13.0^6,11.0^20,24]tetracosa-1,6(11),12,14,16,18,20(24)-heptaen-23-yl]carbamoyl}methoxy)methyl]-3-phenylpropanamide] | 1.98 nM | 97.0% | 6.3% | 0.2 h | 4.41 nM |  | 93.7% | 3.32 nM | 8.96 nM | 98.8% | 13.2 nM | 93.4% | 24.4 h | 51.3% |  |  |  |  |  |
| CC[C@@]1(O)C(=O)OCc2c1cc1n(c2=O)Cc2c-1nc1cc(F)c(C)c3c1c2[C@@H](NC(=O)COCNC(=O)CN)CC3 [P1, 2-Amino-N-[({[(10S,23S)-10-ethyl-18-fluoro-10-hydroxy-19-methyl-5,9-dioxo-8-oxa-4,15-diazahexacyclo[14.7.1.0^2,14.0^4,13.0^6,11.0^20,24]tetracosa-1,6(11),12,14,16,18,20(24)-heptaen-23-yl]carbamoyl}methoxy)methyl]acetamide] | 9.52 nM | 96.0% |  |  | 9.25 nM | 98.0% | 93.1% | 6.78 nM | 23.9 nM | 96.4% | 26.6 nM | 89.8% |  |  | 5.81 nM | 0.63 h | 4.1% | 72.4% | 49.6 h |
| CC[C@@]1(O)C(=O)OCc2c1cc1n(c2=O)Cc2c-1nc1cc(F)c(C)c3c1c2[C@@H](NC(=O)COCNC(=O)[C@@H](N)CO)CC3 [P2, (2S)-2-amino-N-[({[(10S,23S)-10-ethyl-18-fluoro-10-hydroxy-19-methyl-5,9-dioxo-8-oxa-4,15-diazahexacyclo[14.7.1.0^2,14.0^4,13.0^6,11.0^20,24]tetracosa-1,6(11),12,14,16,18,20(24)-heptaen-23-yl]carbamoyl}methoxy)methyl]-3-hydroxypropanamide] | 5.89 nM | 97.0% |  |  | 8.93 nM | 98.4% | 93.2% | 5.68 nM | 19.9 nM | 98.0% | 23.8 nM | 92.7% |  |  |  | 2.5 h | 34.1% | 80.4% | 65.4 h |
